Measurements: BindingDB's records for doi:10.1016/j.bmc.2007.01.049 (University of Ferrara, 2007)

Target: deoxyguanosine kinase (Homo sapiens)
Assay: Inhibition of human dGK assessed as […] phosphorylation

| IC50 [µM] | SMILES |
| --- | --- |
| > 500 | CCCCCCCC(=O)Nc1nc2c(ncn2[C@@H]2O[C@H](CO)[C@@H](O)[C@@H]2OC(=O)CCCCCCC)c(=O)[nH]1 [N2-octanoyl-9-(2'-O-octanoyl-beta-D-arabinofuranosyl)guanine] |
| > 500 | CCCCCCCC(=O)O[C@H]1[C@H](O)[C@@H](CO)O[C@H]1n1cnc2c(=O)[nH]c(N)nc21 [9-(2'-O-octanoyl-beta-D-arabinofuranosyl)guanine] |
